Experiments:
Type in all cases: in vivo
[1] = system: smartweed (ladysthumb smartweed, Polygonum persicaria); test: Test E pre-/postemergence greenhouse test, plant response rating 0-100; settings: scale 0 to 100; for Smartweed plant response rating: Preemergence
[2] = system: green foxtail (Setaria viridis); test: as above; settings: Preemergence, scale 0 to 100
[3] = system: large (Lg) crabgrass (Digitaria sanguinalis); test: as above; settings: Preemergence, scale 0 to 100
[4] = system: goosegrass (Eleusine indica); test: as above; settings: Preemergence, scale 0 to 100
kochia (Kochia scoparia) = test: as above; settings: Preemergence, scale 0 to 100
Method in brief: (§1)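 Pre- and postemergence sprays, vehicle non-phytotoxic solvent containing surfactant; postemergence plants 2–18 cm tall at the 1–4-leaf stage. Scored against controls after 14 to 21 days in a greenhouse, 0 being no effect and 100 complete control.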

[5] = system: ragweed (common ragweed, Ambrosia elatior); test: as above; settings: Preemergence, scale 0 to 100
Method in brief: as §1

[6] = system: surinam grass (Brachiaria decumbens); test: as above; settings: Preemergence, scale 0 to 100
Method in brief: as §1

[7] = system: smartweed (ladysthumb smartweed, Polygonum persicaria); test: as above; settings: Postemergence, scale 0 to 100
[8] = system: velvetleaf (Abutilon theophrasti); test: as above; settings: Preemergence, scale 0 to 100
Method in brief: as §1

[9] = system: Italian ryegrass (Lolium multiflorum); test: as above; settings: scale 0 to 100; for Plant response rating, Ryegrass, Italian: Postemergence; for Ryegrass, Italian plant response rating: Preemergence
Method in brief: as §1

[10] = system: barnyardgrass (Echinochloa crus-galli); test: as above; settings: scale 0 to 100; for Plant response rating, Barnyardgrass: Postemergence; for Barnyardgrass plant response rating: Preemergence
Method in brief: as §1

[11] = system: morningglory (Ipomoea coccinea); test: as above; settings: Preemergence, scale 0 to 100
[12] = system: giant foxtail (Setaria faberii); test: as above; settings: Preemergence, scale 0 to 100
[13] = system: johnsongrass (Sorghum halepense); test: as above; settings: Preemergence, scale 0 to 100
[14] = system: yellow nutsedge (Cyperus esculentus); test: as above; settings: Preemergence, scale 0 to 100
[15] = system: waterhemp_RES1, (ALS & Triazine resistant common waterhemp, Amaranthus rudis); test: Test E postemergence greenhouse test, plant response rating 0-100; settings: scale 0 to 100
Method in brief: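 Visual ratings, 0 (no effect) to 100 (complete control), made versus controls 14–21 days after postemergence application in the greenhouse. Plants were at 1- to 4-leaf stage (2–18 cm) in peat moss/vermiculite potting medium.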

O=C(c1ccccc1)c1cn(S(=O)(=O)C(F)(F)F)nc1-c1cc(Cl)cc(Cl)c1 [Compound 2]
Smartweed plant response rating ([1]; 31 g ai/ha): 0
Smartweed plant response rating ([1]; 125 g ai/ha): 0
Smartweed plant response rating ([1]; 250 g ai/ha): 0
Foxtail, Green plant response rating ([2]; 31 g ai/ha): 0
Foxtail, Green plant response rating ([2]; 62 g ai/ha): 0
Foxtail, Green plant response rating ([2]; 125 g ai/ha): 0
Foxtail, Green plant response rating ([2]; 250 g ai/ha): 0
Foxtail, Green plant response rating ([2]; 500 g ai/ha): 0
Crabgrass, Large plant response rating ([3]; 31 g ai/ha): 0
Crabgrass, Large plant response rating ([3]; 62 g ai/ha): 0
Crabgrass, Large plant response rating ([3]; 125 g ai/ha): 0
Crabgrass, Large plant response rating ([3]; 250 g ai/ha): 0
Crabgrass, Large plant response rating ([3]; 500 g ai/ha): 0
Goosegrass plant response rating ([4]; 31 g ai/ha): 0
Goosegrass plant response rating ([4]; 62 g ai/ha): 0
Goosegrass plant response rating ([4]; 125 g ai/ha): 0
Goosegrass plant response rating ([4]; 250 g ai/ha): 0
Goosegrass plant response rating ([4]; 500 g ai/ha): 0
Kochia plant response rating (kochia (Kochia scoparia); 31 g ai/ha): 0
Kochia plant response rating (kochia (Kochia scoparia); 62 g ai/ha): 0
Kochia plant response rating (kochia (Kochia scoparia); 125 g ai/ha): 0
Kochia plant response rating (kochia (Kochia scoparia); 250 g ai/ha): 65
Kochia plant response rating (kochia (Kochia scoparia); 500 g ai/ha): 90
Ragweed plant response rating ([5]; 31 g ai/ha): 0
Ragweed plant response rating ([5]; 125 g ai/ha): 0
Ragweed plant response rating ([5]; 250 g ai/ha): 100
Ragweed plant response rating ([5]; 500 g ai/ha): 100
Surinam Grass plant response rating ([6]; 31 g ai/ha): 0
Surinam Grass plant response rating ([6]; 62 g ai/ha): 0
Surinam Grass plant response rating ([6]; 125 g ai/ha): 0
Surinam Grass plant response rating ([6]; 250 g ai/ha): 0
Surinam Grass plant response rating ([6]; 500 g ai/ha): 0
Plant response rating, Smartweed ([7]; 31 g ai/ha): 0
Plant response rating, Smartweed ([7]; 62 g ai/ha): 65
Plant response rating, Smartweed ([7]; 125 g ai/ha): 75
Plant response rating, Smartweed ([7]; 250 g ai/ha): 95
Velvetleaf plant response rating ([8]; 31 g ai/ha): 0
Velvetleaf plant response rating ([8]; 62 g ai/ha): 0
Velvetleaf plant response rating ([8]; 125 g ai/ha): 0
Velvetleaf plant response rating ([8]; 250 g ai/ha): 0
Velvetleaf plant response rating ([8]; 500 g ai/ha): 100
Plant response rating, Ryegrass, Italian ([9]; 31 g ai/ha): 0
Plant response rating, Ryegrass, Italian ([9]; 62 g ai/ha): 0
Plant response rating, Ryegrass, Italian ([9]; 125 g ai/ha): 0
Plant response rating, Ryegrass, Italian ([9]; 250 g ai/ha): 0
Plant response rating, Ryegrass, Italian ([9]; 500 g ai/ha): 0
Ryegrass, Italian plant response rating ([9]; 31 g ai/ha): 0
Ryegrass, Italian plant response rating ([9]; 62 g ai/ha): 0
Ryegrass, Italian plant response rating ([9]; 125 g ai/ha): 0
Ryegrass, Italian plant response rating ([9]; 250 g ai/ha): 0
Ryegrass, Italian plant response rating ([9]; 500 g ai/ha): 0
Plant response rating, Barnyardgrass ([10]; 31 g ai/ha): 0
Plant response rating, Barnyardgrass ([10]; 62 g ai/ha): 0
Plant response rating, Barnyardgrass ([10]; 125 g ai/ha): 0
Plant response rating, Barnyardgrass ([10]; 250 g ai/ha): 0
Plant response rating, Barnyardgrass ([10]; 500 g ai/ha): 0
Barnyardgrass plant response rating ([10]; 31 g ai/ha): 0
Barnyardgrass plant response rating ([10]; 62 g ai/ha): 0
Barnyardgrass plant response rating ([10]; 125 g ai/ha): 0
Barnyardgrass plant response rating ([10]; 250 g ai/ha): 0
Barnyardgrass plant response rating ([10]; 500 g ai/ha): 0
Morningglory plant response rating ([11]; 31 g ai/ha): 0
Morningglory plant response rating ([11]; 62 g ai/ha): 0
Morningglory plant response rating ([11]; 125 g ai/ha): 0
Morningglory plant response rating ([11]; 250 g ai/ha): 0
Morningglory plant response rating ([11]; 500 g ai/ha): 0
Foxtail, Giant plant response rating ([12]; 31 g ai/ha): 0
Foxtail, Giant plant response rating ([12]; 62 g ai/ha): 0
Foxtail, Giant plant response rating ([12]; 125 g ai/ha): 0
Foxtail, Giant plant response rating ([12]; 250 g ai/ha): 0
Foxtail, Giant plant response rating ([12]; 500 g ai/ha): 0
Johnsongrass plant response rating ([13]; 31 g ai/ha): 0
Johnsongrass plant response rating ([13]; 62 g ai/ha): 0
Johnsongrass plant response rating ([13]; 125 g ai/ha): 0
Johnsongrass plant response rating ([13]; 250 g ai/ha): 0
Johnsongrass plant response rating ([13]; 500 g ai/ha): 0
Nutsedge, Yellow plant response rating ([14]; 31 g ai/ha): 0
Nutsedge, Yellow plant response rating ([14]; 125 g ai/ha): 50
Nutsedge, Yellow plant response rating ([14]; 250 g ai/ha): 40
Nutsedge, Yellow plant response rating ([14]; 500 g ai/ha): 35

Fc1cccc(NN=C(c2ccccc2)c2c[nH]nc2-c2cc(Cl)cc(Cl)c2)c1 [Compound 58]
Plant response rating, Smartweed ([7]; 31 g ai/ha): 0
Plant response rating, Smartweed ([7]; 125 g ai/ha): 50
Plant response rating, Ryegrass, Italian ([9]; 31 g ai/ha): 0
Plant response rating, Ryegrass, Italian ([9]; 62 g ai/ha): 0
Plant response rating, Ryegrass, Italian ([9]; 125 g ai/ha): 0
Plant response rating, Ryegrass, Italian ([9]; 250 g ai/ha): 0
Plant response rating, Ryegrass, Italian ([9]; 500 g ai/ha): 0
Plant response rating, Barnyardgrass ([10]; 31 g ai/ha): 0
Plant response rating, Barnyardgrass ([10]; 62 g ai/ha): 0
Plant response rating, Barnyardgrass ([10]; 125 g ai/ha): 0
Plant response rating, Barnyardgrass ([10]; 250 g ai/ha): 0
Plant response rating, Barnyardgrass ([10]; 500 g ai/ha): 0

C=CCn1cc(C(=O)c2ccccc2)c(-c2cc(Cl)cc(Cl)c2)n1 [Compound 60]
Plant response rating, Smartweed ([7]; 31 g ai/ha): 0
Plant response rating, Smartweed ([7]; 62 g ai/ha): 0
Plant response rating, Smartweed ([7]; 125 g ai/ha): 0
Plant response rating, Smartweed ([7]; 250 g ai/ha): 0
Plant response rating, Ryegrass, Italian ([9]; 31 g ai/ha): 0
Plant response rating, Ryegrass, Italian ([9]; 62 g ai/ha): 0
Plant response rating, Ryegrass, Italian ([9]; 125 g ai/ha): 0
Plant response rating, Ryegrass, Italian ([9]; 250 g ai/ha): 0
Plant response rating, Barnyardgrass ([10]; 16 g ai/ha): 0
Plant response rating, Barnyardgrass ([10]; 31 g ai/ha): 0
Plant response rating, Barnyardgrass ([10]; 62 g ai/ha): 0
Plant response rating, Barnyardgrass ([10]; 125 g ai/ha): 0
Plant response rating, Barnyardgrass ([10]; 250 g ai/ha): 0

CCn1cc(C(=O)c2cccs2)c(-c2cc(Cl)cc(Cl)c2)n1 [Compound 18]
Plant response rating, Smartweed ([1]; Postemergence, 500 g ai/ha): 20
Plant response rating, Ryegrass, Italian ([9]; 31 g ai/ha): 0
Plant response rating, Ryegrass, Italian ([9]; 62 g ai/ha): 0
Plant response rating, Ryegrass, Italian ([9]; 125 g ai/ha): 0
Plant response rating, Ryegrass, Italian ([9]; 250 g ai/ha): 0
Plant response rating, Ryegrass, Italian ([9]; 500 g ai/ha): 0
Plant response rating, Barnyardgrass ([10]; 31 g ai/ha): 0
Plant response rating, Barnyardgrass ([10]; 62 g ai/ha): 10
Plant response rating, Barnyardgrass ([10]; 125 g ai/ha): 20
Plant response rating, Barnyardgrass ([10]; 250 g ai/ha): 25
Plant response rating, Barnyardgrass ([10]; 500 g ai/ha): 25
Plant response rating, Waterhemp_RES1 ([15]; 31 g ai/ha): 60
Plant response rating, Waterhemp_RES1 ([15]; 62 g ai/ha): 70
Plant response rating, Waterhemp_RES1 ([15]; 125 g ai/ha): 85
Plant response rating, Waterhemp_RES1 ([15]; 250 g ai/ha): 95
Plant response rating, Waterhemp_RES1 ([15]; 500 g ai/ha): 95

Source: patent publication US10167262B2, “Herbicidal substituted 3-arylpyrazoles” (FMC CORPORATION, priority 2014, dated 2019)
